Results: US8921414B2, “Spiroketals” (EcoBiotics Ltd, priority 2005, dated 2014)
Converted amounts (≈) assume the structure as drawn.

Key:
Drosophila melanogaster = assay: DipteraTOX insecticidal bioassay; parameters: key: A value of A in DipG, Dip P or Dip H represents very active; a value of P represents active; conditions: 250 μg per mL in agar
Method: DipteraTOX. DipteraTOX is referred to herein as DipG, DipP and DipH. DipG represents no grazing of larva. DipP represents no pupae formation and Dip H represents no hatching of flies. A value of A in DipG, Dip P or Dip H represents very active and a value of P represents active. In DipteraTox the fly eggs are applied to the surface of an agar matrix containing 250 μg per mL of the test chemical and allowed to hatch, develop and pupate for a period up of two weeks. The assay was monitored at two discrete times to determine the extent of grazing of the agar matrix at Week 1 and the presence of adult flies at Week 2. […] Drosophila melanogaster was utilised for this assay.

[1] = system: normal human fibroblasts (NFF); assay: Additional in vitro activity: cytotoxic activity, NFF; type: cell-based; conditions: concentration with activity
melanoma MM96L = assay: Additional in vitro activity: antitumor activity, MM96L; type: cell-based, human; conditions: concentration with activity
breast MCF-7 = assay: Additional in vitro activity: antitumor activity, MCF-7; type: cell-based, human; conditions: concentration with activity
ovarian C180-13S = assay: Additional in vitro activity: antitumor activity, C180-13S; type: cell-based, human; conditions: concentration with activity
K562 leukemia = assay: Cell growth inhibition (Table 22), K562; type: cell-based; conditions: Homo sapiens, read-out: IC50 (drug dose which inhibits cell growth by 50%) K562
Method: (§1) The isolated compounds were tested against a number of human and non-human cancer cell lines. The human tumor cell lines were: MCF-7, MDA-MB-231 and T47D, breast cancer; DU145 and PC3, prostate cancer; CI80-13S, ovarian cancer; MM96L, D04, SkMel5, MM418c5 melanoma; HT29, colon cancer; K562 and HL60, leukemia. Mouse cell lines were the B16 mouse melanoma and LK2 UV-induced squamous cell carcinoma (SCC). Neonatal foreskin fibroblasts (NFF) were used as normal control cells. Cells were cultured at 37° C. in 5% carbon dioxide/air, in RPMI 1640 medium containing 10% fetal calf serum.

MM96L melanoma = assay: Cell growth inhibition (Table 22), MM96L; type: cell-based; conditions: Homo sapiens, read-out: IC50 (drug dose which inhibits cell growth by 50%) MM96L
Method: as §1

a human tumor cell line = assay: Preliminary screen of growth-inhibiting activity of derivatised EBI-23, EBI-24, EBI-25; type: cell-based; conditions: growth inhibition
Method: A series of derivatisation reactions were conducted on 1 mg amounts of EBI-23, EBI-24, and EBI-25. Mass spectra were run to confirm the nature of the derivatives but the product(s) weren't purified for this preliminary screen of growth-inhibiting activity in a human tumor cell line. The results were compared on the assumption that no losses occurred during derivatisation.

Trichophyton rubrum = assay: MycoTOX (Tr) antifungal bioassay; type: cell-based
Method: MycoTOX (alternatively referred to herein as Tr) is a non-chromogenic bioassay used to detect activity against filamentous fungal pathogens of plants and animals. The bioassay features a solid phase agar base into which the test compound has been incorporated. As the growth patterns of filamentous fungi are readily apparent on the agar surface the extent of mycelial growth, sporulation (if relevant to the species under investigation) and colour changes with maturation are measured.
MycoTOX, involves a fungus (spore suspension or mycelial fragments) applied to the surface of an agar matrix containing the test chemical and allowed to grow for a period of up to a week (depending on species). The assay was monitored at two discrete times to identify key development phases in the life cycle (for example mycelial growth and extent of sporulation) and the active wells noted. The monitoring times were dependent on the fungal species under investigation.
The MycoTOX assays were carried out using Trichophyton rubrum.

PC3 prostate cancer = assay: Cell growth inhibition (Table 22), PC3; type: cell-based; conditions: Homo sapiens, PC-3; read-out: IC50 (drug dose which inhibits cell growth by 50%) PC3
Method: as §1

B16 mouse melanoma = assay: Cell growth inhibition (Table 22), B16; type: cell-based; conditions: read-out: IC50 (drug dose which inhibits cell growth by 50%) B16
Method: as §1

[2] = system: human peripheral blood lymphocytes (PBMC) with gamma-irradiated LCL; assay: Inhibition of the mixed lymphocyte reaction (MLR); type: cell-based; conditions: [3H]-thymidine on Day 4
Method: (§2) Gamma-irradiated lymphoblastoid cells (LCL, Esptein-Barr virus-transformed B-cells; 17,000) were added to human peripheral blood lymphocytes (PBMC; 50,000 per microtitre well), then the drug, incubated at 37 C as above and labeled with [3H]-thymidine on Day 4. Cells were lysed and washed onto glass fibre mats for scintillation counting. The same drug concentrations were tested for direct toxicity by assay on control LCL (10,000 cells/well).
The MLR measures the ability of normal human T-cells to undergo a proliferative response to allo antigens expressed by a non-proliferating B-cell line. […] This was not due to general toxicity because the growth of control LCLs was unaffected.

[3] = system: control LCL (lymphoblastoid cells); assay: Direct toxicity on control LCL; type: cell-based, human; conditions: same drug concentrations as MLR (1 μg/mL)
Method: as §2

several cell lines = assay: Morphological and cell cycle effects (flow cytometry); type: cell-based; conditions: 24 hour treatment, 1 μg/mL
From the text: This tends to rule out targets such as PKC (prototype compound PMA), DNA damage (prototype cisplatin), kinases (prototype staurosporine), mitochondria or the plasma membrane (cell lysis).
This was not accompanied, however, by the typical rounded morphology of cells treated with tubulin ligands.

B16 melanoma = assay: Inhibition of B16 melanoma growth in C57BL/6 mice; type: in vivo
Method: After a preliminary experiment to determine the MTD in mice, C57BL/6 mice were implanted with B16 melanoma cells (0.5 million cells per site, 2 sites per mouse sc, 3 mice/group) and treatment commenced 24 hours later. For this initial study, EBI-23 was prepared by diluting an ethanol solution into saline, such that the final ethanol level was 2%. The cloudy solution thus obtained was injected intraperitoneally into mice every day for 7 days. Tumor size and body weight were measured over time.

Row | Compound | DipH (no hatching of flies) (Drosophila melanogaster) | DipP (no pupae formation) (Drosophila melanogaster) | cytotoxic activity against normal human fibroblasts (NFF) at [1] [µg/mL] | antitumor activity against melanoma MM96L at (melanoma MM96L) [µg/mL] | antitumor activity against breast MCF-7 at (breast MCF-7) [µg/mL] | antitumor activity against ovarian C180-13S at (ovarian C180-13S) [µg/mL] | IC50 (K562 leukemia) [µg/mL] | IC50 (MM96L melanoma) [µg/mL] | fold less potent than EBI-23 (a human tumor cell line) [fold] | Tr Titre (Trichophyton rubrum) | IC50 (PC3 prostate cancer) [µg/mL] | IC50 (B16 mouse melanoma) [µg/mL] | concentration found to inhibit the MLR [2] [µg/mL] | growth of control LCLs [3] | DNA fragments (apoptosis) (several cell lines) | cell cycle effect by flow cytometry (several cell lines) | B16 growth (B16 melanoma; 80 μg (per mouse per day) intraperitoneally) | B16 growth (B16 melanoma; 250 μg/mouse/day intraperitoneally) | body weight (B16 melanoma; higher dose (250 μg/mouse/day)) | tolerability of regime (B16 melanoma; intraperitoneal daily dosing, C57BL/6 mice)
1 | CC/C=C/CCCCCCCCCCCC(O)CC1CC(O)CC2(CC3OC(=O)C=CC3O2)O1 (stereo not drawn) [EBI-24] | P/P | P/P | 10 | 3 | 10 | 3 | 0.6 (≈ 1.25 µM) | 1.3 (≈ 2.72 µM) | 10 |  |  |  |  |  |  |  |  |  |  | 
2 | CCCCCCCCCCCCCC(O)CC1CC(O)CC2(CC3OC(=O)C=CC3O2)O1 (stereo not drawn) [EBI-23] |  | P | 30 | 1 | 1 | 1 | 1.7 (≈ 3.76 µM) | 0.15 (≈ 0.331 µM) |  | 0 | 1 (≈ 2.21 µM) | 0.5 (≈ 1.1 µM) | 1 | unaffected | No DNA fragments were detected | variable degree of G2/M arrest | measurable response | significant reduction | some weight loss | tolerated this regime well
